The source of these data is paper PMC7583931 (International Journal of Molecular Sciences, 2020).

In test [1] the target is T1, Human BBOX (γ-butyrobetaine hydroxylase) (Homo sapiens, UniProt O75936).
T1 construct: gene BBOX1; human recombinant enzyme
T1 sequence (O75936 1-387): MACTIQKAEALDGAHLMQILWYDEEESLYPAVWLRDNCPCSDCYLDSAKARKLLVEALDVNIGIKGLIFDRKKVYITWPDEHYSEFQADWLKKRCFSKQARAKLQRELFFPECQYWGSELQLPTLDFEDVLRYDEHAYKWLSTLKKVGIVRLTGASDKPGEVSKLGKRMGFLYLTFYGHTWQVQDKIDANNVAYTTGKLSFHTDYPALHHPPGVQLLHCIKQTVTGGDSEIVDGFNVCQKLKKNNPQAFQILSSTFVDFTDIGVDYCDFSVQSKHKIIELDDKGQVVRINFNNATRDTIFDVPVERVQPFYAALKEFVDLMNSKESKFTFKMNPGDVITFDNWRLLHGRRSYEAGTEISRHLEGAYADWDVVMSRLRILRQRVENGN
The test is described as follows: carnitine formation from gamma-butyrobetaine by UPLC/MS/MS. It is filed as biochemical. The text has this: carnitine formation from gamma-butyrobetaine by UPLC/MS/MS on Human BBOX (γ-butyrobetaine hydroxylase)

Test [2] deals with T2, hOCTN2 (carnitine/organic cation transporter OCTN2, SLC22A5) (Homo sapiens, UniProt O76082).
T2 sequence (O76082 1-557): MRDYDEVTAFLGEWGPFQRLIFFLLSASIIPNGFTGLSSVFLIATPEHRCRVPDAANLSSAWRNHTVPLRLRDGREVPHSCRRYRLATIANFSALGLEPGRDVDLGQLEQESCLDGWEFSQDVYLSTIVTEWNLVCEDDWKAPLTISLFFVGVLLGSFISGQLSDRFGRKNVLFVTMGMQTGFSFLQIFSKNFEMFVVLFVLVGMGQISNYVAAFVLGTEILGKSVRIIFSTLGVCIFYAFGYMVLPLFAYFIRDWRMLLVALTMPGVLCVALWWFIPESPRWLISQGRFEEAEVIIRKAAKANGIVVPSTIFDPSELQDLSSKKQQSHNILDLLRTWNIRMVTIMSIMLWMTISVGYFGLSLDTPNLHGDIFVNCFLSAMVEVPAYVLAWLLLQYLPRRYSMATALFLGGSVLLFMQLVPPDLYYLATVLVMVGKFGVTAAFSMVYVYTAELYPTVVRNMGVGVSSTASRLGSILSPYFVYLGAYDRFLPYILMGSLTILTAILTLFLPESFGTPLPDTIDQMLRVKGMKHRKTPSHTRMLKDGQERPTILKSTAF
The test is described as follows: inhibition of L-carnitine uptake in hOCTN2-transfected cells. It is filed as cell-based. Particulars: 10 µM carnitine with (N-methyl-3H)-carnitine tracer, Na+ buffer pH 7.4, 37 °C.

Structures are written as SMILES. Like-named read-outs stand apart in the source and are kept apart here.

For `C[N+](C)(C)CCCC(=O)Nc1ccc([N+](=O)[O-])cc1` [4k], the IC50 in test [1] came out at 78 ± 16 µM. Also, the “carnitine uptake in presence of 50 μM compound” value in test [2] was “significantly inhibited by TCL substrates, including 4i, 4j, and 4k”.

The compound `Cc1ccc(NC(=O)CCC[N+](C)(C)C)cc1C` [4j] registered an IC50 in test [1] of 97 ± 17 µM.

For the compound `C[N+](C)(C)CCCC(=O)NCCCc1ccccc1` [4t], the IC50 in test [1] (200 µM GBB, 3 mM 2-oxoglutarate, 0.25 mM ferrous ammonium sulfate, 10 mM ascorbate, pH 7.0, 37 °C, 15 min preincubation) came out at 76 ± 13 µM.

A word on the IC50: it is the concentration that gives 50% inhibition. The low end stands for greater potency in that assay, the high end for weaker potency in that assay.
